Experimental data reported in EP4417607A1, “HETEROCYCLIC COMPOUND AS SOS1 INHIBITOR AND USES THEREOF” (Nanjing Zaiming Pharmaceutical Co., Ltd., priority 2021, dated 2023).

Experiments:
CYP2D6 = biological target: T1, CYP2D6 (Homo sapiens, UniProt P10635); test: CYP2D6 enzymatic activity inhibition in human liver microsomes; format: in vitro ADME; details: IC50, human liver microsome, substrate dextromethorphan
T1 construct: Human liver microsome (Corning 452117); tissue Corning 452117; host or cells: human liver microsomes
Method: (§1) The inhibition of CYP2C9, CYP2D6, and CYP3A4 enzymatic activity by the compound of the present invention was determined using the following method. • I. Experimental materials and instruments • 1. Human liver microsome (Corning 452117) • 2. Na2HPO4 (Sigma SLBZ6180) • 3. KH2PO4 (Sigma SLBT6559) • 4. NADPH (Solarbio 705Y021) • […] • 6. Positive substrates diclofenac (Sigma SLBV3438), dextromethorphan (TRC 3-EDO-175-1), and midazolam (Cerilliant FE01161704) • 7. Positive inhibitors sulfaphenazole (D. Ehrenstorfer GmbH 109012), quinidine (TCI WEODL-RE), and ketoconazole (Sigma 100M1091V) • 7. AB Sciex Triple Quad 5500 liquid chromatography-mass spectrometry system • II. Procedures • 1. Preparation of 100 mM phosphate-buffered saline (PBS): 7.098 g Na2HPO4 was weighed. 500 mL pure water was added. The mixture was dissolved by sonication to give solution A. 3.400 g KH2PO4 was weighed. 250 mL pure water was added. The mixture was dissolved by sonication to give solution B. The solution A was placed in a stirrer, and the solution B was slowly added until the pH reached 7.4 to prepare the 100 mM PBS buffer. • 2. A 10 mM NADPH solution was prepared with a 100 mM PBS buffer. A 10 mM stock solution of the compound of the present invention was diluted with DMSO to give a compound working solution at a concentration of 200× (6000, 2000, 600, 200, 60, 20, and 0 µM). The positive inhibitor stock solution was diluted with DMSO to give a positive inhibitor working solution at a concentration of 200× (sulfaphenazole, 1000, 300, 100, 30, 10, 3, and 0 µM; quinidine/ketoconazole, 100, 30, 10, 3, 1, 0.3, and 0 µM). Substrate working solutions (120 µM diclofenac, 400 µM dextromethorphan, and 200 µM midazolam) at a concentration of 200× were prepared with water, acetonitrile, or acetonitrile/methanol. • 3. […]
(§2) The values were calculated by Excel XLfit 5.3.1.3 to obtain IC50 values for the compounds of the present invention against CYP2C9, CYP2D6, and CYP3A4 as shown in Table 8. […]

CYP3A4 = biological target: T2, CYP3A4 (Homo sapiens, UniProt P08684); test: CYP3A4 enzymatic activity inhibition in human liver microsomes; format: in vitro ADME; details: IC50, human liver microsome, substrate midazolam
T2 construct: Human liver microsome (Corning 452117); tissue Corning 452117; host or cells: human liver microsomes
Method: as §1, §2

T2 sequence (P08684 whole entry): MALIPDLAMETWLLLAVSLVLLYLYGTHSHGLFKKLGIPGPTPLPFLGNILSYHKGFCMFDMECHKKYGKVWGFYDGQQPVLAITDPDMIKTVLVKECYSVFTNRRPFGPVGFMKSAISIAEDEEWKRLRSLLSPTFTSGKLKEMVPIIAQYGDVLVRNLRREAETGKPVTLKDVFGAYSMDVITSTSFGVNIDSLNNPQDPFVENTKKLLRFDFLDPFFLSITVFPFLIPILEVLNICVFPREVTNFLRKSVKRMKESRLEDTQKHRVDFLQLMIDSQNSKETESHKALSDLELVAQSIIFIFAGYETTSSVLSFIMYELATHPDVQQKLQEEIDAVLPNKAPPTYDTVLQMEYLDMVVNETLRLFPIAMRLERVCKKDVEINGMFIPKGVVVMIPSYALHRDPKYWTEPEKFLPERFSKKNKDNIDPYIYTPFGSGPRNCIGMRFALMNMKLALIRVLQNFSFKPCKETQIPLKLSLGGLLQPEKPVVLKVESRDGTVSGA
T1 sequence (P10635 whole entry): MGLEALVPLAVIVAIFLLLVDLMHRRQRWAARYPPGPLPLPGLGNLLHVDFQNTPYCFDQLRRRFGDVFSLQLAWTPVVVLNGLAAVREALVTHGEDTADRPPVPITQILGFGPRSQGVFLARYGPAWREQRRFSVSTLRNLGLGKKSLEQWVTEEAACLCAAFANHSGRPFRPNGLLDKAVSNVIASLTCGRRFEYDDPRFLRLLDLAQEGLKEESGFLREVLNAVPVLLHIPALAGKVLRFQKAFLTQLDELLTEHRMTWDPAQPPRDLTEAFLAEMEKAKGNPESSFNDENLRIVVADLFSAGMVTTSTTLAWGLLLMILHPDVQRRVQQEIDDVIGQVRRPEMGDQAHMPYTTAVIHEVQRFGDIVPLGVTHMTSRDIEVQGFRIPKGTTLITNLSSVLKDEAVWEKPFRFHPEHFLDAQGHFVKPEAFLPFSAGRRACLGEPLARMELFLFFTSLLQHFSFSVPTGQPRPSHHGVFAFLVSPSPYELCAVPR

Structure (SMILES) | IC50 (CYP2D6) [µM] | IC50 (CYP3A4) [µM]
[2H][C@](C)(Nc1nc(C)nc2c(N3CCOCC3)c(=O)n(C3(CF)CC3)cc12)c1cccc(C(F)F)c1F [Example 55, (R)-4-((1-(3-(difluoromethyl)-2-fluorophenyl)ethyl-1-d)amino)-6-(1-(fluoromethyl)cyclopropyl)-2-methyl-8-morpholinylpyrido[4,3-d]pyrimidine-7(6H)-one] | > 30 | > 30
[2H]C([2H])([2H])Oc1c(=O)n(C2(CF)CC2)cc2c(N[C@H](C)c3cccc(C(F)F)c3F)nc(C)nc12 [Example 23, (R)-4-((1-(3-(difluoromethyl)-2-fluorophenyl)ethyl)amino)-6-(1-(fluoromethyl)cyclopropyl)-8-(methoxy-d3)-2-methylpyrido[4,3-d]pyrimidine-7(6H)-one] | > 30 | > 30
Cc1nc(N[C@H](C)c2cccc(C(F)F)c2F)c2cn(C3(CF)CC3)c(=O)c(N3CCOC[C@@H]3C)c2n1 [Example 40, 4-(((R)-1-(3-(difluoromethyl)-2-fluorophenyl)ethyl)amino)-6-(1-(fluoromethyl)cyclopropyl)-2-methyl-8-((S)-3-methylmorpholine)pyrido[4,3-d]pyrimidine-7(6H)-one] | > 30 | > 30
